Data as given in PMC6235261, “Deuterium isotope effects in drug pharmacokinetics II: Substrate-dependence of the reaction mechanism influences outcome for cytochrome P450 cleared drugs” (PLoS ONE, 2018).

Key:
CYP2C8 = target: T1, CYP2C8 (Homo sapiens, UniProt P10632); assay: Substrate depletion with recombinant CYP2C8; type: in vitro ADME; conditions: for As % of CYP3A4: recombinant CYP2C8, depletion rate constant relative to CYP3A4
T1 construct: host or cells: insect cells (membranes)
T1 sequence (P10632 1-490): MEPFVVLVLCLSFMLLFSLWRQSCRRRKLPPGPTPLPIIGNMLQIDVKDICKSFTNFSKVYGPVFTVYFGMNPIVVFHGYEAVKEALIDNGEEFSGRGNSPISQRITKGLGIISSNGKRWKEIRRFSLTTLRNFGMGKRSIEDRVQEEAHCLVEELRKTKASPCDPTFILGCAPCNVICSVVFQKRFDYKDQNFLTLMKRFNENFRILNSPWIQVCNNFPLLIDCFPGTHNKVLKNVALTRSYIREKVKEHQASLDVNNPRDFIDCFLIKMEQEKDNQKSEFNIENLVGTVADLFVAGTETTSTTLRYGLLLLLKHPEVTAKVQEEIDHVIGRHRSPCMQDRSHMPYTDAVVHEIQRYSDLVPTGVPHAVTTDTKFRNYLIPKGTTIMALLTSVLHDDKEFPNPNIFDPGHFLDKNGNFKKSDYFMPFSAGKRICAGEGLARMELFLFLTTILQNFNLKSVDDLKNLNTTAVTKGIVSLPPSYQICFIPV
Protocol: (§1) Relative CYP activities were determined from the ratio of the depletion rate constant for each isoform relative to that for CYP3A4. […] Eight 100 μL aliquots each were removed over a period of 70 to 90 minutes and added to 100 μL of a 0.1 μM solution of an internal standard in methanol to quench the enzymatic reaction. The samples were filtered through a high protein-binding capacity filter membrane in a 96-well format. The filtrates were evaporated in a vacuum centrifuge to near dryness, diluted with 125 μL of water, and a 99 μL aliquot was analyzed by reversed phase chromatography/mass spectrometry using selected reaction monitoring. Rate constants were determined from the semi-logarithmic plots of the time versus ratio of the area under the peak for specific transitions of the various substrates and the internal standard. The intrinsic clearance isotope effect was determined from the ratio of the rate constants for the protio- and respective deuterio- forms.

CYP2C9 = target: T2, CYP2C9 (Homo sapiens, UniProt P11712); assay: Substrate depletion with recombinant CYP2C9; type: in vitro ADME
T2 construct: host or cells: insect cells (membranes)
Protocol: as §1

CYP2C19 = target: T3, CYP2C19 (Homo sapiens, UniProt P33261); assay: Substrate depletion with recombinant CYP2C19; type: in vitro ADME; conditions: for kobs: recombinant CYP2C19, substrate depletion at 1.0 μM, 10 pmol/mL rCYP, 37 °C
T3 construct: host or cells: insect cells (membranes)
Protocol: as §1

CYP2D6 = target: T4, CYP2D6 (Homo sapiens, UniProt P10635); assay: Substrate depletion with recombinant CYP2D6; type: in vitro ADME
T4 construct: host or cells: insect cells (membranes)
Protocol: as §1

CYP1A2 = target: T5, CYP1A2 (Homo sapiens, UniProt P05177); assay: Substrate depletion with recombinant CYP1A2; type: in vitro ADME; conditions: for kobs: recombinant CYP1A2, substrate depletion at 1.0 μM, 10 pmol/mL rCYP, 37 °C
T5 construct: host or cells: insect cells (membranes)
T5 sequence (P05177 2-516 limits assumed): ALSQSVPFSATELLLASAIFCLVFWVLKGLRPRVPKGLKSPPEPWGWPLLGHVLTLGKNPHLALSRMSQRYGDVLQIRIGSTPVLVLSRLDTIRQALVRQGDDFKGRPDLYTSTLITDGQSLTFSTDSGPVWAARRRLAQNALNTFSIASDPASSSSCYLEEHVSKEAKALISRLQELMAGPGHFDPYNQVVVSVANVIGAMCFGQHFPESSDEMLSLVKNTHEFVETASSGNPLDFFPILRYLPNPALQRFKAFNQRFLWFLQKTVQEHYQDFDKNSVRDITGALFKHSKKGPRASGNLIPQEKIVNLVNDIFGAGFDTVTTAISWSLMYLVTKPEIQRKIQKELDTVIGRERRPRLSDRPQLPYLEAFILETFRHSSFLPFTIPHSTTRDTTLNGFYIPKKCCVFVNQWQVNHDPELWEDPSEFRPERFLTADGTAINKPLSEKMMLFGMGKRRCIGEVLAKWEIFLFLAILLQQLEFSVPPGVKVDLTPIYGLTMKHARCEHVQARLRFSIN
Protocol: as §1

[1] = Estimation of Km by the substrate depletion method; type: in vitro ADME; conditions: human, pH 7.4
Protocol: as §1

CYP3A4 = target: T6, CYP3A4 (Homo sapiens, UniProt P08684); type: in vitro ADME; conditions: 1 μM, pH 7.4
T6 construct: host or cells: insect cells (membranes)
Protocol: as §1

T3 sequence (P33261 whole entry): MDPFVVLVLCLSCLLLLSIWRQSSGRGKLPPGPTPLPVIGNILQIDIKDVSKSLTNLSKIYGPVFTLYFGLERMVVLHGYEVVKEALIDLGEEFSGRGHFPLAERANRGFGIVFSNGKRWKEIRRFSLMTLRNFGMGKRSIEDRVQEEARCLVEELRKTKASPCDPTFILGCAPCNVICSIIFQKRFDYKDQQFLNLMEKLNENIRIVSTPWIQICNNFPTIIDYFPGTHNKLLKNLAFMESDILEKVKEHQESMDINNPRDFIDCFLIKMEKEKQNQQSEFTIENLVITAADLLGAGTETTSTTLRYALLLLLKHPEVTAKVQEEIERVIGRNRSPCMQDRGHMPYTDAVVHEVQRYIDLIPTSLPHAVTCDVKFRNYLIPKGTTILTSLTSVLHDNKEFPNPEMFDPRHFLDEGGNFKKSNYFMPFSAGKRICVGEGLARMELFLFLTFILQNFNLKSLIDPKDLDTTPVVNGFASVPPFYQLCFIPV
T6 sequence (P08684 2-503 limits assumed): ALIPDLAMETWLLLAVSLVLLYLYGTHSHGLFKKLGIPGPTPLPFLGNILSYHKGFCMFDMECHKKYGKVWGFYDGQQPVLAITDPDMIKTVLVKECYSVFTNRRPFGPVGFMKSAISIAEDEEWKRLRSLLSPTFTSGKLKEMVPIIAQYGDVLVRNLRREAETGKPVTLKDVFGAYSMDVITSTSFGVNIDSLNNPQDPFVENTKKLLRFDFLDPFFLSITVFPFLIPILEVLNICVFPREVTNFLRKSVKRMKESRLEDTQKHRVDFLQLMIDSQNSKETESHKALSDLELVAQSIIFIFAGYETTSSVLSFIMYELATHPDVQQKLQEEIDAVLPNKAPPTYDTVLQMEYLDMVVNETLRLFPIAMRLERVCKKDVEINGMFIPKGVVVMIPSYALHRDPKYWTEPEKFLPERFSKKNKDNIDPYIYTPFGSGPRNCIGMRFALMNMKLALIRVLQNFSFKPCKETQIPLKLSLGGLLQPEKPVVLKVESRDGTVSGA
T2 sequence (P11712 whole entry): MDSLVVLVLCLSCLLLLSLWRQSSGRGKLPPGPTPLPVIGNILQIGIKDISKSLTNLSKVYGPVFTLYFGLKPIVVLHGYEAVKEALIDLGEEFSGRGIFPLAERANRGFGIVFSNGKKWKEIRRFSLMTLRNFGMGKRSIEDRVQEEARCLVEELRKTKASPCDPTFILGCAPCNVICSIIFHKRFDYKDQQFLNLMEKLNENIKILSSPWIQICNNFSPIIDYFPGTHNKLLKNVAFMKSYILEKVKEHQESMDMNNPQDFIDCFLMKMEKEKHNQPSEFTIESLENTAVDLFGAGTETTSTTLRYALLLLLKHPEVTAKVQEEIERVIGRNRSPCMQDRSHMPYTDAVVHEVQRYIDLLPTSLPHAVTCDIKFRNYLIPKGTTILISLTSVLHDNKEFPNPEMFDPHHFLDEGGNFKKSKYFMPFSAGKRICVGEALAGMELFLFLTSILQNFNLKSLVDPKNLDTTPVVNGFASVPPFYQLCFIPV
T4 sequence (P10635 whole entry): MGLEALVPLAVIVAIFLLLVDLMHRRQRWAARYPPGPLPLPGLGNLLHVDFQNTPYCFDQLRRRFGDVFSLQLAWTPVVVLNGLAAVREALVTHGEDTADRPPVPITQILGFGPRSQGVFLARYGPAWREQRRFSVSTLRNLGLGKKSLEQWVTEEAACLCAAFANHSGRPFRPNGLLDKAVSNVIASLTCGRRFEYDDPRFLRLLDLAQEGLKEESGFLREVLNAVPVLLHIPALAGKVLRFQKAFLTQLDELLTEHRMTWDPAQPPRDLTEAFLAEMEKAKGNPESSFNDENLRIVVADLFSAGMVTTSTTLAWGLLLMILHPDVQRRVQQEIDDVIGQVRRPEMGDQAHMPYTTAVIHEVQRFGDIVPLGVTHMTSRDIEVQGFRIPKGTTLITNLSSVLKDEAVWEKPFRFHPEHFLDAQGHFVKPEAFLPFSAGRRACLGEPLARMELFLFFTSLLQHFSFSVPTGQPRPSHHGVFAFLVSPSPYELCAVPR

SMILES | As % of CYP3A4 (CYP2C8) [%] | kobs (CYP2C8; recombinant CYP2C8, substrate depletion at 1.0 μM, 10 pmol/mL rCYP, 37 °C) [min⁻¹] | kobs (CYP2C9; recombinant CYP2C9, substrate depletion at 1.0 μM, 10 pmol/mL rCYP, 37 °C) [min⁻¹] | kobs (CYP2C19) [min⁻¹] | kobs (CYP2D6; recombinant CYP2D6, substrate depletion at 1.0 μM, 10 pmol/mL rCYP, 37 °C) [min⁻¹] | melting point [°C] | kobs (CYP1A2) [min⁻¹] | Km [1] [µM] | As % of CYP3A4 (CYP2C9; recombinant CYP2C9, depletion rate constant relative to CYP3A4) [%] | As % of CYP3A4 (CYP2C19; recombinant CYP2C19, depletion rate constant relative to CYP3A4) [%] | kobs (CYP3A4) [min⁻¹] | As % of CYP3A4 (CYP3A4; recombinant enzyme) [%] | As % of CYP3A4 (CYP2D6; recombinant CYP2D6, depletion rate constant relative to CYP3A4) [%] | As % of CYP3A4 (CYP1A2; recombinant CYP1A2, depletion rate constant relative to CYP3A4) [%]
CCNc1nc2c(c(C(N)=O)n1)CN(C(=O)CCc1ccc(OC(F)(F)F)cc1)CC2 [Compound 1a] | 0 | 0.001 | 0.050 | 0.071 | 0.015 | 132 to 133 | 0.009 | > 5 | – | – | – | – | – | –
COc1cccc(-n2nnc(C3CC3)c2C(=O)N(C)c2ccc(C#N)cc2)c1 [Compound 2a] | 0 | – | – | 0.014 | – | – | <0.001 | > 5 | 0 | 24 | 0.059 | 100 | 0 | 0
